Assay results reported in paper PMC4725915, “Ruthenium(II) Complexes with 2-Phenylimidazo[4,5-f][1,10]phenanthroline Derivatives that Strongly Combat Cisplatin-Resistant Tumor Cells” (Scientific Reports, 2016).

Legend:
Assay type in all cases: cell-based, human
[1] = test system: HeLa; assay: MTT cytotoxicity assay, HeLa; settings: 48 h, mean ± SD of three experiments
Protocol: Compounds 1–4 were evaluated against three tumor cell lines derived from different tissues, including the cervix (HeLa), lung (A549) and cisplatin-resistant lung (A549R) tissues. For comparison, the cytotoxicity of cisplatin was also evaluated. As a control, the toxicities of the complexes were also tested against the normal human cell line (LO2).
The human cervix carcinoma cell line (HeLa), the lung carcinoma cell lines (A549 and A549R), and the human hepatocyte cell line (LO2) were obtained from the Experimental Animal Center at Sun Yat-Sen University (Guangzhou, China). The cells were maintained in Dulbecco’s modified Eagle’s medium (DMEM, Gibco BRL) or Roswell Park Memorial Institute 1640 (RPMI 1640, Gibco BRL) medium supplemented with 10% fetal bovine serum (FBS, Gibco BRL), 100 μg/mL streptomycin, and 100 U/mL penicillin (Gibco BRL) in a humidified incubator under 5% CO2 and 20% O2 at 37 °C. To maintain the resistant phenotype, A549R cells were incubated with 5 μM cisplatin and cultured in drug-free medium for at least a week before use.
The cytotoxicity of the ruthenium complexes and cisplatin were determined by an MTT assay. Briefly, cells were seeded into 96-well microtiter plates at 1 × 10^4 cells per well and grown overnight at 37 °C in a 5% CO2 incubator; then, different concentrations of the complexes in cell culture medium were added to the cultures. The plates were then incubated in an incubator for 48 h under the same conditions. The stock MTT dye solution (15 μL, 5 mg/mL) was added to each well. After 4 h of incubation, the cultures were removed and 150 μL of DMSO was added to each well. The optical density of each well was measured on a microplate spectrophotometer at a wavelength of 595 nm.

[2] = test system: A549R cells; assay: Subcellular distribution study by ICP-MS; settings: 2.0 μM, 12 h
Protocol: To understand the high sensitivity of cancer cells to Ru(II) complexes, the extent of cellular uptake was investigated with inductively coupled plasma mass spectrometry (ICP-MS) by treating the HeLa, A549, A549R and LO2 cell lines with 2.0 μM concentrations of the Ru(II) complexes and cisplatin for 12 h. […] In this study, the cellular uptake and lipophilicity were distinctly correlated and followed the order: 4 >3 >2 >1. Complex 4 had the best accumulation, but the amount of Ru in LO2 cells was far less than that in the three cancer lines, indicating selective accumulation and improved efficiency for treating cancer. Cisplatin was taken up more efficiently by the sensitive cell line (A549) than by the cisplatin-resistant cell line (A549R). […] However, less than 1.5% of the cellular platinum was accumulated in the mitochondrial fraction of the A549R cells. Therefore, complex 4 could function in a different manner than cisplatin in A549R cells, which would be an appropriate solution to combat cisplatin resistance in tumor cells.
A549R cells were plated at a density of 1 × 10^5 cells/mL in 10 mL of DMEM for 24 h at 37 °C under 5% CO2 and 20% O2. […] The ruthenium or platinum contents were determined using inductively coupled plasma mass spectrometry (ICP-MS Thermo Elemental Co., Ltd.).

[3] = test system: TrxR; assay: TrxR activity assay in A549R cells (DTNB reduction); settings: 4.0 μM, 12 h
Description: The elevated levels of TrxR in cancers, especially in non-small cell lung cancers, are responsible for drug resistance. The thioredoxin system has a significant influence on intracellular physiological processes, such as antioxidant defense, cell functions, cell apoptosis and cell proliferation. TrxR has previously been identified as a drug target. […] In addition, the expression levels of TrxR in A549R cells in response to the addition of complex 4 were also examined by Western blot analysis.
A549R cells (2 × 10^6 cells) treated or untreated with complex 4 for 12 h were homogenized in 100–200 μl of cold assay buffer on ice and a protease inhibitor cocktail was added to the sample; the sample was then centrifuged at 10,000 x g for 15 min at 4 °C. The supernatant was collected for the assay and stored on ice. The protein concentration of each supernatant was determined using the Bradford reagent. A total of 40 μl of the reaction mix (30 μl assay buffer, 8 μl 5, 5′-dithiobis (2-nitrobenzoic) acid (DTNB) solution and 2 μl NADPH) was added to each sample and incubated at 25 °C for 20 min. TrxR catalyzes the reduction of DTNB by NADPH to 5-thio-2-nitrobenzoic acid (TNB2), which generates a strong yellow color (λmax = 412 nm); consequently, the amount of […] was used to monitor the change in absorbance at 412 nm. […]

[4] = test system: A549R cells; assay: Intracellular ROS (DCFH-DA staining); settings: 0.5 μM, 12 h
Protocol: TrxR is a key enzyme in the regulation of the intracellular redox environment. However, cellular oxidative stress is known to trigger the initiation of apoptotic signaling, which results in cell death. Complex 4 was proven to inhibit the activity of TrxR and could induce severe oxidative stress in A549R cells. To assess the capacity of complex 4 to generate intracellular reactive oxygen species (ROS), A549R cells were treated with different concentrations of complex 4 for 12 h and stained with 2′,7′-dichlorofluorescein diacetate (DCFH-DA)[46]. DCFH-DA is an oxidation-sensitive dye that is specifically detected by measuring the enhanced green fluorescent intensity caused by intracellular ROS. This dye was used to quantify the generation of intracellular ROS. […] These findings were further confirmed with flow cytometric analyses (Fig. 5d).
The generation of reactive oxygen species (ROS) in A549R cells was measured using a ROS sensitive fluorescent probe, 2,7-dichlorodihydrofluorescein diacetate (DCFH-DA). […] The levels of intracellular ROS were examined with an inverted fluorescence microscope (Zeiss Axio Observer D1) and flow cytometry (FACSCanto II, BD Biosciences, USA). The excitation wavelength was 485 nm, and the fluorescence was measured at 530 nm. […]

Ru(phen)(bzq)(tbtfpip)(PF6) [Complex 4]
IC50 [1]: 2.4 ± 0.3 µM | share of cellular metal accumulated in the mitochondrial fraction [2]: over 55% | decline of intracellular TrxR activity [3]: approximately 45% | intracellular ROS levels [4]: increase in ROS
